Measurements from the NIST ThermoML archive (doi:10.1021/acs.jced.7b00106).

Settings: Liquid, Hot wire method

FC(F)(F)/C=C/Cl [(E)-1-chloro-3,3,3-trifluoroprop-1-ene]
Settings | thermal conductivity [W/m/K]
422.96 K, 4305 kPa | 0.05253
422.96 K, 20042 kPa | 0.06564
422.97 K, 20051 kPa | 0.06568
423 K, 10141 kPa | 0.05847
423 K, 10146 kPa | 0.05853
423 K, 25690 kPa | 0.06899
423.02 K, 28110 kPa | 0.07042
423.03 K, 28120 kPa | 0.07037
423.04 K, 17472 kPa | 0.06399
423.04 K, 17483 kPa | 0.06401
423.05 K, 25698 kPa | 0.06896
423.06 K, 8781 kPa | 0.05726
423.06 K, 8783 kPa | 0.05728
423.07 K, 7608 kPa | 0.05614
423.07 K, 7616 kPa | 0.05619
423.07 K, 15379 kPa | 0.06256
423.08 K, 15382 kPa | 0.06257
423.1 K, 6613 kPa | 0.05516
423.11 K, 6611 kPa | 0.05515
423.11 K, 22703 kPa | 0.06725
423.11 K, 28104 kPa | 0.07029
423.12 K, 22728 kPa | 0.06757
423.12 K, 28121 kPa | 0.07049
423.14 K, 5716 kPa | 0.05419
423.15 K, 5712 kPa | 0.0542
423.15 K, 13390 kPa | 0.06109
423.15 K, 13399 kPa | 0.06114
423.2 K, 4943 kPa | 0.05335
423.2 K, 4945 kPa | 0.0533
423.2 K, 11667 kPa | 0.05975
423.21 K, 11671 kPa | 0.05977
423.21 K, 20041 kPa | 0.06545
423.21 K, 20058 kPa | 0.06566
423.26 K, 25692 kPa | 0.06895
423.26 K, 25702 kPa | 0.06897
423.27 K, 10146 kPa | 0.05849
423.28 K, 10147 kPa | 0.05852
423.29 K, 17476 kPa | 0.06396
423.3 K, 17478 kPa | 0.064
423.3 K, 28106 kPa | 0.07034
423.31 K, 28126 kPa | 0.07033
423.32 K, 8771 kPa | 0.05728
423.33 K, 8783 kPa | 0.05728
423.35 K, 7611 kPa | 0.05616
423.35 K, 7616 kPa | 0.05621
423.35 K, 15369 kPa | 0.06251
423.35 K, 15382 kPa | 0.06259
423.37 K, 22716 kPa | 0.06724
423.37 K, 22722 kPa | 0.06728
423.38 K, 6613 kPa | 0.0552
423.38 K, 28103 kPa | 0.07024
423.39 K, 28113 kPa | 0.07028
423.4 K, 6606 kPa | 0.05518
423.43 K, 13394 kPa | 0.06111
423.44 K, 5711 kPa | 0.05425
423.44 K, 5715 kPa | 0.05429
423.44 K, 13394 kPa | 0.06111
423.48 K, 20043 kPa | 0.06561
423.48 K, 20053 kPa | 0.06564
423.49 K, 11667 kPa | 0.05991
423.49 K, 11670 kPa | 0.05977
423.54 K, 25699 kPa | 0.06893
423.55 K, 25702 kPa | 0.06894
423.56 K, 10145 kPa | 0.05848
423.56 K, 10147 kPa | 0.05849
423.57 K, 17456 kPa | 0.06393
423.57 K, 17477 kPa | 0.0642
423.6 K, 28105 kPa | 0.07025
423.62 K, 8777 kPa | 0.05731
423.62 K, 28121 kPa | 0.07026
423.63 K, 8770 kPa | 0.05731
423.63 K, 15380 kPa | 0.06255
423.64 K, 15380 kPa | 0.06256
